The target of experiment [1] is Neuropeptide Y receptor type 1 (Homo sapiens, UniProt P25929). The format is functional.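 Further: HEK293 cells with a CNG channel challenged with NPY then isoproterenol; potency as antagonist that reverses NPY suppression of cAMP signal.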
Experiment [2] has as its target Neuropeptide Y receptor type 2 (Homo sapiens, UniProt P49146). In kind it is functional, cell-based.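 Further: HEK293 cells expressing the receptor and a CNG channel; stimulus was NPY near EC95 followed by isoproterenol to raise cAMP; antagonist potency measured as restoring cAMP signal that NPY suppresses.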
The target in a further experiment is T1, Protein skinhead-1 (Caenorhabditis elegans, UniProt P34707).
T1 sequence (P34707 whole entry): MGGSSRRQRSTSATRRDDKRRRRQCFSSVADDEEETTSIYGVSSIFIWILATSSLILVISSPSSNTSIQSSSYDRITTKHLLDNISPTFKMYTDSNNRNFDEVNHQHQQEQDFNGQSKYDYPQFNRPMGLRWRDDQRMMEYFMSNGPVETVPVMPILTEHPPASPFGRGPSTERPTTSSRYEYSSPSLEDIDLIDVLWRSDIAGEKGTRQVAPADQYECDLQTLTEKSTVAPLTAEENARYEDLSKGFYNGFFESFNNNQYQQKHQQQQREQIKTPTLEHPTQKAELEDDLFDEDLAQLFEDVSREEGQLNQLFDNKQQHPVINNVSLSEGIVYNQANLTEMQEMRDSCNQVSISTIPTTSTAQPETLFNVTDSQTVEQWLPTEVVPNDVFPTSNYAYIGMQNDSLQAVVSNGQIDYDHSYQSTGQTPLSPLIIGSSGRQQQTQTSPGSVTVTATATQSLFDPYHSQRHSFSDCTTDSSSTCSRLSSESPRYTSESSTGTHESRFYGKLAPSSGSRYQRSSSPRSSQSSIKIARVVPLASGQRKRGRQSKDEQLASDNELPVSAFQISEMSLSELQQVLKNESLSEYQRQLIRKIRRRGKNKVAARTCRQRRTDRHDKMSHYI
The format is functional.

Experiment [3] in a line: CCR5-tropic HIV-1 fusion blockers – cell-based, CCR5-tropic Env, dose response (AID 2279). The format is functional.
A further experiment concerns the target Genome polyprotein (dengue virus type 2, UniProt P29990). Kind of experiment: flavivirus cap methylation enzyme inhibition – biochemical, confirmation dose response, primary screen (AID 588689). In kind it is functional.
The nature of experiment [4]: Counterscreen for IDE inhibitors: Luminescence-based cell-based high throughput dose response assay to identify compounds that are cytotoxic to HEK cells. [Related pubchem assays: 434962 (Primary screen (IDE inhibitors in singlicate)), 449730 (Counterscreen (Cytotoxicity in triplicate)), 435028 (Confirmation (IDE inhibitors in triplicate)) …. The format is functional. Conditions: HEK293.

The next experiment addresses T2, Insulin-degrading enzyme (Homo sapiens, UniProt P14735).
T2 sequence (P14735 whole entry): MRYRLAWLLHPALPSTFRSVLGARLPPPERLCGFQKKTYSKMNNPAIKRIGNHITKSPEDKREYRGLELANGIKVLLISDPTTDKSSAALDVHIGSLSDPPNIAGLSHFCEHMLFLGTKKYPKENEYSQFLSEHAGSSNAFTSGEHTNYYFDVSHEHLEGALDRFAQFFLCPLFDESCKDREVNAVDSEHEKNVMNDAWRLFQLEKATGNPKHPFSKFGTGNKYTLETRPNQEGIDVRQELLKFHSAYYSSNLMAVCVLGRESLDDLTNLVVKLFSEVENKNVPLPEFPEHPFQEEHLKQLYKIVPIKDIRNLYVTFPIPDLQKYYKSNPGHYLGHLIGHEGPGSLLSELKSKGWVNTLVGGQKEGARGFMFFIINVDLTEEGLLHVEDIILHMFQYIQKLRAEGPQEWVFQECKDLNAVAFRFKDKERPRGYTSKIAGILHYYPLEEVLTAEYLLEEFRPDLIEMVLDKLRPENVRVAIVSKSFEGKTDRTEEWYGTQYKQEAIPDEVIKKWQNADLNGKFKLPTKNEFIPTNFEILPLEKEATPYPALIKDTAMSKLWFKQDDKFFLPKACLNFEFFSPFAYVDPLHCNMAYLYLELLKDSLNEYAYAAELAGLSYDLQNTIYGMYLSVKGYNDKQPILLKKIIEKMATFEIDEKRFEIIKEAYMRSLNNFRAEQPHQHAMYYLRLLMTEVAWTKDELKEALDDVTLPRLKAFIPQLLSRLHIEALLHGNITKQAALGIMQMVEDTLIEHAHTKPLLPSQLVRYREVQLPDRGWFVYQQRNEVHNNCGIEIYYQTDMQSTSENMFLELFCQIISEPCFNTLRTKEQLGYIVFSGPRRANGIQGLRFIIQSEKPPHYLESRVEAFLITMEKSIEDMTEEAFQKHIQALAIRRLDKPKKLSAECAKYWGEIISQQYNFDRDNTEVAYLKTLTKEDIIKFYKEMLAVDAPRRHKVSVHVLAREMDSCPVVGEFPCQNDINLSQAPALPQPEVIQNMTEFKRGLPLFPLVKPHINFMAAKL
Kind of experiment: Dose Response: Fluorescence polarization-based cell-based high throughput dose response assay for inhibitors of insulin-degrading enzyme (IDE). [Related pubchem assays: 434962 (Primary screen (IDE inhibitors in singlicate)), 449730 (Counterscreen (Cytotoxicity in triplicate)), 435028 (Confirmation (IDE inhibitors in triplicate)), 434984 (Summary …. In kind it is functional.

Experiment [5] concerns the target T3, Sentrin-specific protease 1 (Homo sapiens, UniProt Q9P0U3).
T3 sequence (Q9P0U3 whole entry): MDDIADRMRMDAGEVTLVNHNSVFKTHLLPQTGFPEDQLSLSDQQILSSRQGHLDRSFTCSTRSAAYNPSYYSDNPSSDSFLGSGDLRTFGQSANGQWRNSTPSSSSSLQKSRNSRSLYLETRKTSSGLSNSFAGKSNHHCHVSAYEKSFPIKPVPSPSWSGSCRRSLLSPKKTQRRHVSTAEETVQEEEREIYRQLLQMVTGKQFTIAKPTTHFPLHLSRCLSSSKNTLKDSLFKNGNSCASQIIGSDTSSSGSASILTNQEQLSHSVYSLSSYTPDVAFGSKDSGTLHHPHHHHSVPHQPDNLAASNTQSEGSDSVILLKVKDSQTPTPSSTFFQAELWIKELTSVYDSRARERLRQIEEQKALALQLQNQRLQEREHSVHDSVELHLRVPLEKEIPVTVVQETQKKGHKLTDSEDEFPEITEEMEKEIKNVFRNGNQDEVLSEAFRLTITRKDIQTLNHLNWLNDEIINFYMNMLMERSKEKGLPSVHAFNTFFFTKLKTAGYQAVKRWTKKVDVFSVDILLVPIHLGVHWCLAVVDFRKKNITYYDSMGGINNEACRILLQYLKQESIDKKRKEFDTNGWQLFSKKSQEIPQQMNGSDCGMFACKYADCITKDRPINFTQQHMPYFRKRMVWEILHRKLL
Kind of experiment: SENP1 catalytic domain blockers, concentration series – biochemical, kinetic FRET, dose response (AID 651697). In kind it is functional. Conditions: read-out: IC50_Mean.

The target in experiment [6] is T3, Sentrin-specific protease 1. Nature of the experiment: Dose response confirmation of small molecule inhibitors of the catalytic domain of the SUMO protease, SENP1 in a FRET assay. In kind it is functional. Conditions: read-out: IC50_Mean.
For experiment [7], the target named is T4, Tyrosine-protein phosphatase non-receptor type 7 (Homo sapiens, UniProt P35236).
T4 sequence (P35236 whole entry): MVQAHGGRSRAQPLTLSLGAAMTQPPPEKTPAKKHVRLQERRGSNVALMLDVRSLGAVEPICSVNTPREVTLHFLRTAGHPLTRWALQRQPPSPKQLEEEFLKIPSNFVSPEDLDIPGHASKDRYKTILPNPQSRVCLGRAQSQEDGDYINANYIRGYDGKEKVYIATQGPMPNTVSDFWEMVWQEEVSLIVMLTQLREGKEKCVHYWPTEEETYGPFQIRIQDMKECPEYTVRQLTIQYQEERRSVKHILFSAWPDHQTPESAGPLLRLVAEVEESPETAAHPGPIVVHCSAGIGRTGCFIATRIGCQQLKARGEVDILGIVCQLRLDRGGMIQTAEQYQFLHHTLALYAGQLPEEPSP
The format is functional.

In experiment [8] the target is Glyceraldehyde-3-phosphate dehydrogenase (Homo sapiens, UniProt P04406).
Sequence of Glyceraldehyde-3-phosphate dehydrogenase (P04406 whole entry): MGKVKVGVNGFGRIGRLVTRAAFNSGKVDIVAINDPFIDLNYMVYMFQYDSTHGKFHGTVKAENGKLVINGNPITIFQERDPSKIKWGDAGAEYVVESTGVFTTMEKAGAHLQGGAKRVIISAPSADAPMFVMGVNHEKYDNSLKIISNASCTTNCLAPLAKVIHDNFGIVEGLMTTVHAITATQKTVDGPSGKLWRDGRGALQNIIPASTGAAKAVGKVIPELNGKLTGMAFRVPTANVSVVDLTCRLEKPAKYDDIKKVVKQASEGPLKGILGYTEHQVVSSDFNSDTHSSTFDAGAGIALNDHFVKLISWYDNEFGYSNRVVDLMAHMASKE
The target of experiment [9] is Heat shock cognate 71 kDa protein (Homo sapiens, UniProt P11142). Nature of the experiment: In Vitro Hsc70 Dose Response Fluorescence Polarization Assay. [Related pubchem assays: 1072 ].
Sequence of Heat shock cognate 71 kDa protein (P11142 whole entry): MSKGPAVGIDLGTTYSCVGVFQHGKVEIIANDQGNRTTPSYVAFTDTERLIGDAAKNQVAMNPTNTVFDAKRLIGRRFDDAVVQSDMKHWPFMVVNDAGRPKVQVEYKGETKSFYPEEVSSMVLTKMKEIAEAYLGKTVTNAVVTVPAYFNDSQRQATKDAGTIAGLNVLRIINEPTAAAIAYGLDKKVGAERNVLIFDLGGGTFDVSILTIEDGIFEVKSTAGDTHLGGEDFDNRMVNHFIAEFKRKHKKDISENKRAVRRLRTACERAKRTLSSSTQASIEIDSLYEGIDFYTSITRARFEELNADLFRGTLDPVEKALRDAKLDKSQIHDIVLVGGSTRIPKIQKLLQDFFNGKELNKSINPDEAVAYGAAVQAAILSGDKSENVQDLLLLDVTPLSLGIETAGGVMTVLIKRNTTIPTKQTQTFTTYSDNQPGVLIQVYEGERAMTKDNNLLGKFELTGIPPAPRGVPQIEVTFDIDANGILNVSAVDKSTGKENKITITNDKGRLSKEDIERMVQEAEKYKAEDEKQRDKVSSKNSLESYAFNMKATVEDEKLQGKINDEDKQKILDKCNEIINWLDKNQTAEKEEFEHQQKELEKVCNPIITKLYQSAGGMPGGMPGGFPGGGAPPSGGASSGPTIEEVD
The target of experiment [10] is Heat shock 70 kDa protein 1A (Homo sapiens, UniProt P0DMV8). Kind of experiment: inhibition of Hsp70 binding activity – biochemical, fluorescence polarization, SAR follow-up (AID 1072).
Experiment [11] concerns the target T5, Dual specificity protein phosphatase 6 (Rattus norvegicus, UniProt Q64346).
T5 sequence (Q64346 whole entry): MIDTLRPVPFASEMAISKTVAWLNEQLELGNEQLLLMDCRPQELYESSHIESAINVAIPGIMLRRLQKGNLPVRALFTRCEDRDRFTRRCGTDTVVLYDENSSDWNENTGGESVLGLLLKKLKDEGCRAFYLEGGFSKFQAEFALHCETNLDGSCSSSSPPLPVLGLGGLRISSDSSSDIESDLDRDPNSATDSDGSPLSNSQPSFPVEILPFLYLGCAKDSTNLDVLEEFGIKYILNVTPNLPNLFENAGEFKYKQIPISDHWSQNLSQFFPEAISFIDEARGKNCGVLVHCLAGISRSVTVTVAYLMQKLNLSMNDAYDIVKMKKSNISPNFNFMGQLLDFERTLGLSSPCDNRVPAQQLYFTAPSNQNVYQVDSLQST

The target of experiment [12] is T5, Dual specificity protein phosphatase 6. In kind it is functional.
Another experiment addresses Mucolipin-3 (Homo sapiens, UniProt Q8TDD5). Kind of experiment: Dose response cell-based high-throughput screening assay for agonists of the transient receptor potential channel ML3 (TRPML3). [Related pubchem assays: 1526, 1424, 1448 ]. The format is functional.
A further experiment has as its target Ion channel NompC (Danio rerio, UniProt Q7T1G6). Nature of the experiment: Fluorescence counterscreen assay for TRPML3 agonists: dose response cell-based high-throughput screening assay to identify agonists of the transient receptor potential channel N1 (TRPN1). [Related pubchem assays: 1526, 1424, 1448 ]. In kind it is functional.
Experiment [13] has as its target T6, Corticotropin-releasing factor receptor 2/Corticotropin-releasing factor-binding protein (Homo sapiens, UniProt P24387+Q13324).
T6 sequence (Q13324 whole entry): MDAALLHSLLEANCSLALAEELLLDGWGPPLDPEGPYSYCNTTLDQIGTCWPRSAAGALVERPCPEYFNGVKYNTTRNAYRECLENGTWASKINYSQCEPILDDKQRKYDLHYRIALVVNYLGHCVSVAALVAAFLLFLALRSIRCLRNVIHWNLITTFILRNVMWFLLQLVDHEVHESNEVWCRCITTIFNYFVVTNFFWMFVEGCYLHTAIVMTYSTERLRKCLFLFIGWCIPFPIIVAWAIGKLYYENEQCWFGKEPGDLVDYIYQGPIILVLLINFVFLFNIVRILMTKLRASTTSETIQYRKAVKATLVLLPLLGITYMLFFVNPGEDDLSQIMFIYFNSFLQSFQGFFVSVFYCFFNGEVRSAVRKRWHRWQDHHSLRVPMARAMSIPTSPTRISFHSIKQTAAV
T6 sequence (P24387 whole entry): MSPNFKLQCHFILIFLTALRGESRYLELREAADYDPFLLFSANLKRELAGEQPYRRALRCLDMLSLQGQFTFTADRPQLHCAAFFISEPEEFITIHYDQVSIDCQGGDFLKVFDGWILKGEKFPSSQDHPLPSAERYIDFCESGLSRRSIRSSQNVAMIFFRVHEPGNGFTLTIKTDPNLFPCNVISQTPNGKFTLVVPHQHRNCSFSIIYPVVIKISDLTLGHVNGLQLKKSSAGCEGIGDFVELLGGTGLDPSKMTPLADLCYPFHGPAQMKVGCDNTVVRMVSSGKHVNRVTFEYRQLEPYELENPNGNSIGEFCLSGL
Nature of the experiment: Dose Response confirmation of uHTS hits for small molecule antagonists of the CRF-binding protein and CRF-R2 receptor complex. The format is functional. Particulars: read-out: IC50_Mean.

The target in experiment [14] is T6, Corticotropin-releasing factor receptor 2/Corticotropin-releasing factor-binding protein. Nature of the experiment: activators of CRF receptor 2 with binding protein – uHTS hits, confirmation (AID 602473). In kind it is functional. Conditions: read-out: EC50_Mean.
The nature of experiment [15]: blockers of CRF-binding protein–CRF-R2 complex – cell-based, uHTS hits, 384-well, dose response (AID 651639). The format is functional, Homo sapiens. Conditions: read-out: IC50_Mean.
The nature of experiment [16]: antiviral protection against BTV-induced cell death – arbovirus, BSR cells, confirmation (AID 1250).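 Further: protection from viral cytopathic effect measured as cell viability by ATP luminescence.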 The format is functional.

Activity calls are given as the source filed them.

Sequence of Ion channel NompC (Q7T1G6 whole entry): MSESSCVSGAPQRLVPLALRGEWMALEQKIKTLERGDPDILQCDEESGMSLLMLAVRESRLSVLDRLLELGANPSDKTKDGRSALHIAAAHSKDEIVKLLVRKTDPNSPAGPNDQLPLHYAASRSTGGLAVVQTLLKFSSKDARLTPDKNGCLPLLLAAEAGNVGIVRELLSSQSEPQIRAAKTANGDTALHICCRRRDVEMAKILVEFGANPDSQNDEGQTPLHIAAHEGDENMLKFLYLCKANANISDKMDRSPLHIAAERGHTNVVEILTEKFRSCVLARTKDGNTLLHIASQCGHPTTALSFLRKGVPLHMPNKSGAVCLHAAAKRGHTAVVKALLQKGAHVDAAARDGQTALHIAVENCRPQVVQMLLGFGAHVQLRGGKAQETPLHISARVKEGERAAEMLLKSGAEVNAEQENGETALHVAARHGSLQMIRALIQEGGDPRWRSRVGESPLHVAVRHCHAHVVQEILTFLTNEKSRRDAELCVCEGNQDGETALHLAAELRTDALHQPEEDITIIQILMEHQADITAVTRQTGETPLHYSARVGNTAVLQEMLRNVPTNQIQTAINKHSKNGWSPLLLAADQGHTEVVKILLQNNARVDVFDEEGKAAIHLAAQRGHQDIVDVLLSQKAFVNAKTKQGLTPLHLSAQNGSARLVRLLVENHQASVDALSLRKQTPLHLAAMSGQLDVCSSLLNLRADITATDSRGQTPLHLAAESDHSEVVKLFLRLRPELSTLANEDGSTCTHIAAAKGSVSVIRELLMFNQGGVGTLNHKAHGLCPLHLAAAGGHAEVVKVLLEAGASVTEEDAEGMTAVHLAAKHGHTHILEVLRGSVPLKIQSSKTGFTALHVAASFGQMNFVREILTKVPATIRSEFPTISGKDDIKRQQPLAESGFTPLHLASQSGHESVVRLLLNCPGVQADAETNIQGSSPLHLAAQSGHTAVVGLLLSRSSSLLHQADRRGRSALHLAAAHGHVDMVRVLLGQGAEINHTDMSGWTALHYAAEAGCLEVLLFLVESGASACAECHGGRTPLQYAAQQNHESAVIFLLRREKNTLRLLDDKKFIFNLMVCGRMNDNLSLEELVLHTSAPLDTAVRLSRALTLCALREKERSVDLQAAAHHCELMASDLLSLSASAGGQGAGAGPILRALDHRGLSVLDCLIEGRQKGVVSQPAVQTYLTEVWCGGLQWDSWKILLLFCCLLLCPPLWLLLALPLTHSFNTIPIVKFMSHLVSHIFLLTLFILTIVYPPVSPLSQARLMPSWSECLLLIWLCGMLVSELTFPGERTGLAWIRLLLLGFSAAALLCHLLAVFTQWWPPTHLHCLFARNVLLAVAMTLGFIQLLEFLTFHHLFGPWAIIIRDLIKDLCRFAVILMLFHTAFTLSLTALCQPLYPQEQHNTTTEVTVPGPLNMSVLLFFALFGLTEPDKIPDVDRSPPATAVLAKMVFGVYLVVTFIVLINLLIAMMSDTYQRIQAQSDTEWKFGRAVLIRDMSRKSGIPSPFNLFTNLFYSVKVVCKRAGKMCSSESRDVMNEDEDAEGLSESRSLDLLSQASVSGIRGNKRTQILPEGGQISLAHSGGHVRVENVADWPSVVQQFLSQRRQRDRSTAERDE
Sequence of Neuropeptide Y receptor type 1 (P25929 whole entry): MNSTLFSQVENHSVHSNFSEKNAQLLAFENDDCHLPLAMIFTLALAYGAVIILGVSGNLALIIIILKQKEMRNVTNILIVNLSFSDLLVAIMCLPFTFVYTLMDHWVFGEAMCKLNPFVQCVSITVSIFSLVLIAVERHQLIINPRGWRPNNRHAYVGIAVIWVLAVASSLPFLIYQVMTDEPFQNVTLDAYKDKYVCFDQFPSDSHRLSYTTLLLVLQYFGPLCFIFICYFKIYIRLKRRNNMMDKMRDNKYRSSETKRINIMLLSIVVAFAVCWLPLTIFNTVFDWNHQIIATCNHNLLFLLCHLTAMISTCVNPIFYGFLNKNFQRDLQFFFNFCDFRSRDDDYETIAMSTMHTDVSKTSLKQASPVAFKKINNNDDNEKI
Sequence of Neuropeptide Y receptor type 2 (P49146 whole entry): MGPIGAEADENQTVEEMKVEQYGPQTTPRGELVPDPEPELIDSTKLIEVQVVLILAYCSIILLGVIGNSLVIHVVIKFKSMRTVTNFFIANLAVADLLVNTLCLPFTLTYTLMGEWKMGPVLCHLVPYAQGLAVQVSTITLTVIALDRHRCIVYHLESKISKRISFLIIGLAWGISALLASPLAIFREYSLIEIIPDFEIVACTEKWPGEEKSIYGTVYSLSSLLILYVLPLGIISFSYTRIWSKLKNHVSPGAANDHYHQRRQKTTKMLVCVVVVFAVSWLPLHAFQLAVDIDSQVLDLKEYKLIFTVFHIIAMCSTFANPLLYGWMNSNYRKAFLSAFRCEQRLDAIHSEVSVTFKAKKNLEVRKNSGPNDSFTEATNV
Sequence of Mucolipin-3 (Q8TDD5 whole entry): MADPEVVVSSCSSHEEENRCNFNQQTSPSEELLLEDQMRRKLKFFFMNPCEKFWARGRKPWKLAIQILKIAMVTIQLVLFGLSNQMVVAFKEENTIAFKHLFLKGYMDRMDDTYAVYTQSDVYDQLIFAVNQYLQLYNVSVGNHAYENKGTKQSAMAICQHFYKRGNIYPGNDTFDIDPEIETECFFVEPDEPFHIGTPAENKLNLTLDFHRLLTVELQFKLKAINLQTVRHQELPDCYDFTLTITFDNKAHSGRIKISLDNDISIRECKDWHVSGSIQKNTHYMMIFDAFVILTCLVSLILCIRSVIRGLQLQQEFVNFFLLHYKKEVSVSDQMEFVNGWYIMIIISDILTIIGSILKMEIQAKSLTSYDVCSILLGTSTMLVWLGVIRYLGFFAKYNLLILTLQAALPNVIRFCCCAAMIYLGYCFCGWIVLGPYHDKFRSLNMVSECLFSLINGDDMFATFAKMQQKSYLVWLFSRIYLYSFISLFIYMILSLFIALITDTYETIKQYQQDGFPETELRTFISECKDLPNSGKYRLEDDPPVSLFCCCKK
Sequence of Genome polyprotein (P29990 2492-3391 limits assumed): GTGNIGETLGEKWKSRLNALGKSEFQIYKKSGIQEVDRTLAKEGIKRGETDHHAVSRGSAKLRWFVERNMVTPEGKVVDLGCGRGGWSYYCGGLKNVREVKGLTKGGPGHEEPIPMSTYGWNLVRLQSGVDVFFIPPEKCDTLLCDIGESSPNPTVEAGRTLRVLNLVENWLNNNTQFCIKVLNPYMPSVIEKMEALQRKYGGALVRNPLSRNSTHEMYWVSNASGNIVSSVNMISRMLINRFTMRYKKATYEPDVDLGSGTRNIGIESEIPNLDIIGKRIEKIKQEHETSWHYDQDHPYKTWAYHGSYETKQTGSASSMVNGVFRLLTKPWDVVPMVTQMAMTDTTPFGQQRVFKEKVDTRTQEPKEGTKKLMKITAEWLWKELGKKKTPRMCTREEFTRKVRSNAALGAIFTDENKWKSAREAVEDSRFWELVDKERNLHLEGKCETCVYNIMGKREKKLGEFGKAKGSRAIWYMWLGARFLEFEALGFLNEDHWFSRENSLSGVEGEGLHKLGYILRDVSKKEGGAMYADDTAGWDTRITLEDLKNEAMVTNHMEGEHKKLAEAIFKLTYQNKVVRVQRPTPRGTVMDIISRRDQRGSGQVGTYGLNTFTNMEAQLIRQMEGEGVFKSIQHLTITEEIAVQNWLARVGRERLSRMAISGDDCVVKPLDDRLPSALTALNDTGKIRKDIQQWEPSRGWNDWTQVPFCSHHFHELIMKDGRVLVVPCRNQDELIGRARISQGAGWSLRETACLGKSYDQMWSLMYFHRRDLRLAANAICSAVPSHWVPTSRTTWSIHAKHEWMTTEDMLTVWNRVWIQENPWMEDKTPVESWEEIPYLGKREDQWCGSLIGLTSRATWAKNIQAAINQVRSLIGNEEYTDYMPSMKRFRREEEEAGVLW

For `c1ccc(-c2nc(CSc3nnc(-c4cccs4)o3)cs2)cc1`, the IC50 was 12.8 µM (not active) in [1], 17.3 µM (not active) in experiment [2] and > 100 µM (inactive) at Protein skinhead-1.
`CCCOc1cccc(C2C(C(=O)c3cc4ccccc4o3)=C(O)C(=O)N2c2cc(C)on2)c1` (stereo unspecified): the IC50 was 44.5 µM (active) in experiment [3] and 32.6 µM (active) on Genome polyprotein.
For `CCN(CC)C(=O)Cn1cc(C(=O)C(=O)N2CC=C(c3ccccc3)CC2)c2ccccc21`, the IC50 is 24.4 µM (not active) in experiment [4], 35.1 µM (not active) at Insulin-degrading enzyme, 20.4 µM (inactive) in experiment [5] and 7.95 µM (active) in experiment [6].
Turning to `CCOC(=O)c1ccccc1OC(=O)c1ccc2c(c1)C1C=CCC1C(C(=O)O)N2` (stereo unspecified), the IC50 in experiment [7] is 3.3 µM (active); in experiment [8] it was > 100 µM (not active); in [9], 112 µM (active); in experiment [10] it was 35.1 µM (active); in experiment [11], 14.1 µM (active); in experiment [12], 6.01 µM (active).
As to `Cc1ccc(S(=O)(=O)N2CCCCCC2)cc1[N+](=O)[O-]`, the EC50 on Mucolipin-3 was 5.29 µM (active); at Ion channel NompC, > 29.9 µM (not active); in experiment [14] it was > 53 µM (inactive). Moreover, the IC50 in experiment [13] was 18.3 µM (active); in [15] it was > 20 µM (inactive).
As for `Cc1ccc(C)c(S(=O)(=O)N2CCN(C(C)C(=O)Nc3ccccc3-c3ccccc3)CC2)c1` (stereo unspecified), the IC50 in [16] is 44.1 µM (active).

For the origin of these results see ChEMBL document CHEMBL1201862, “PubChem BioAssay data set” (2004).
